Marks after values point to notes of the source that are not given here.
Legend:
[1] = test system: HUVECs; assay: MTT cell viability assay; format: cell-based, human; settings: CSL 5–50 μM
Protocol: (§1) First, the potential cytotoxicity of […] on HUVECs was assessed using the 3-(4,5-dimethylthiazol-2-yl)-2,5-diphenyltetrazolium bromide (MTT) assay. […] The activated partial thromboplastin time (aPTT) and prothrombin time (PT), two coagulation parameters altered by CSL in vitro, were assessed first. We used the direct FXa inhibitor rivaroxaban as a positive control for our experiments. […] In the aPTT experiments, rivaroxaban at 8.38 μM and CSL at 7.23 μM, respectively, doubled the clotting time. Each mouse group (n = 5) received intravenous injections of CSL for 4 consecutive days to validate the in vitro results in an ex vivo experiment. […] In the ex vivo aPTT assays, treatment with CSL at 0.25 mg/kg and rivaroxaban at 0.29 mg/kg, respectively, doubled the clotting time. The average blood volume was determined to be 2 mL based on an estimated circulating blood volume for mice of 72 mL/kg and an average weight of 27 g for each animal used in this investigation. As a result, the estimated concentration of CSL in the peripheral blood after each injection ([…]) was 2.5, 5, 10, or 20 μM, respectively.
A 3-(4,5-dimethylthiazol-2-yl)-2,5-diphenyltetrazoliumbromide (MTT) assay was used to measure cell viability. […] The amount of formazan salt formed was measured spectrophotometrically at 540 nm.

[2] = target: Trypsin; assay: Inhibitory constant, chromogenic substrate assay; format: biochemical, human
Protocol: Ki values were calculated based on chromogenic substrate experiments. CSL was employed in each assay at a minimum of seven concentrations in duplicate to obtain an inhibition curve. A total of 50 μL of substrate was combined with 25 μL of each chemical solution, inhibitor solution, or blank buffer. Before the plate was allocated into the Labsystems IEMS microtiter plate reader (Cergy Pontoise, France), 25 μL of the enzyme solution was mixed. The plate was allowed for 1 h at 37 °C before analysis. We continuously observed the formation of p-nitroaniline produced when the substrate was hydrolyzed using spectrophotometry at 405 nm. The maximum initial reaction rates were computed as the millioptical density per minute. A Dixon plot of 1/Vmax versus inhibitor concentration was used to fit the curve and determine the Ki values.

[3] = test system: collagen and epinephrine-induced pulmonary thrombosis; assay: Acute pulmonary thrombosis induced by collagen and epinephrine; format: in vivo, mouse; settings: for Mortality %: then collagen + epinephrine, mice; for Scored thrombus formation (Thrombi), lung: graded as thrombi per 25 mm^2 lung field
Protocol: Mice were separated into several groups after being fasted overnight (10 animals each). CSL was dissolved in DMSO and given intravenously to each mouse. After 1 h, the animals received an injection of collagen and epinephrine mixture (500 μg/kg each) to induce acute thrombosis. Each mouse was closely observed for 15 min to see if it had recovered from the acute thrombosis challenge, had been paralyzed, or had passed away. H&E-stained lung tissue slices from five mice were randomly selected for the histologic investigation to determine the extent of pulmonary thrombus development. The number of arteries greater than 20 μm in diameter with any detectable thrombus was counted in each of the five view fields randomly selected from the left lobe in each section (one section per mouse). Twenty-five fields for each group were compared as a result. A total of 60–80 vessels in each segment were imaged using the system (Leica, Germany). The results were graded as the number of thrombi per 25 mm^2 lung field as previously described.

[4] = test system: platelet-poor plasma (PPP); assay: Prothrombin time (PT) after administration to mice; format: in vivo, mouse; settings: administered to mice; data not shown
Protocol: as §1
Plasma was taken by centrifuging blood (2000× g for 10 min) at room temperature following dimethyl sulfoxide (DMSO) or CSL administration for 1 h to assess PT and aPTT using a thrombotimer (Behnk Elektronik, Norderstedt, Germany). […] Next, the clotting time was measured.

[5] = test system: FeCl3-induced carotid artery thrombosis; assay: FeCl3-induced carotid artery thrombosis model; format: in vivo, mouse; settings: mice
Protocol: A mouse model of FeCl3-induced thrombosis was created and used. Male C57BL/6 mice were starved for the entire night before receiving intravenous injections of the relevant drug in 0.2 mL of DMSO and were allowed to sleep. The carotid artery of the animal was exposed. The adventitial surface was covered with a cotton thread (200 μm in diameter) soaked in FeCl3 solution (0.25 M) for 5 min. The wound was flushed with saline solution once the thread had been removed. […] We measured the size and rate of thrombus formation, and we graded our results as follows: no thrombus or small thrombus (75–50 μm), medium thrombus (150–100 μm), massive thrombus (300–200 μm), and more than three thrombi. It was also noted how long it took for an extensive thrombus to obstruct the carotid artery following endothelial damage caused by FeCl3.

[6] = test system: PRP; assay: FXa-induced platelet aggregation; format: cell-based, human; settings: FXa 52 µg/mL; PRP preincubated 5 min
Protocol: Figure 5 Effects of CSL on the catalytic activity and production of FXa. […] Plots show the average values of five independent measurements. (B) HUVECs pre-incubated with the indicated concentrations of CSL for 10 min were stimulated with TNF-α (10 ng/mL) for 6 h and incubated with FX (175 nM) and FVIIa (10 nM) with/without anti-tissue factor antibody (25 µg/mL). The production of FXa was characterized as described in the Methods section. (C) PRP was preincubated for 5 min with different concentrations of CSL, Riva, or the vehicle. Platelet aggregation was initiated with FXa (52 µg/mL), and the platelet aggregation was recorded using an aggregometer. Data are shown as mean values ± SD of five independent experiments. * p < 0.05 vs. TNF-α alone (B) or FXa (C). D = 0.2% DMSO, used as the vehicle control.
CSL dissolved in DMSO was incubated with human PRP for a specified time (1, 3, 5, or 10 min). Next, PRP was activated by the addition of collagen (1 μg/mL), ADP (10 μM), U46619 (6 μM), or thrombin (3 U/mL), and the amount of platelet aggregation was measured using an aggregometer (Chronolog, Havertown, PA, USA).

COc1cc(-c2cc(=O)c3c(O)c(OC)c(OC)cc3o2)ccc1O [CSL, 4,5-dihydroxy-3,6,7-trimethoxyflavone]
cell viability (MTT) [1]: no change in cell viability
Ki [2]: > 300 µM
Ratio = Ki enzyme/Ki Factor Xa [2]: >100
Mortality % ([3]; 0.13 mg/kg intravenous): 85 ^# %
Scored thrombus formation (Thrombi), lung ([3]; 0.13 mg/kg intravenous): 3.5 ± 0.1
Mortality % ([3]; 0.26 mg/kg intravenous): 80 ^# %
Scored thrombus formation (Thrombi), lung ([3]; 0.26 mg/kg intravenous): 2.5 ± 0.1
Mortality % ([3]; 0.51 mg/kg intravenous): 60 ^# %
Scored thrombus formation (Thrombi), lung ([3]; 0.51 mg/kg intravenous): 1.8 ± 0.2
PT [4]: did not change
Scored thrombus formation ([5]; 0.13 mg/kg intravenous): 3.7 ± 0.2
Time to Large Thrombus Formation ([5]; 0.13 mg/kg intravenous): 13.1 ± 1.1 min
Scored thrombus formation ([5]; 0.26 mg/kg intravenous): 2.7 ± 0.1
Time to Large Thrombus Formation ([5]; 0.26 mg/kg intravenous): 27.2 ± 2.1 min
Scored thrombus formation ([5]; 0.51 mg/kg intravenous): 1.8 ± 0.1
Time to Large Thrombus Formation ([5]; 0.51 mg/kg intravenous): 51.4 ± 3.1 min
platelet aggregation brought on by FXa [6]: dramatically reduced

Source: article PMC10145360, “Antiplatelet Aggregation Properties of Cirsilineol: A Novel Inhibitor of Blood Coagulation Factor Xa” (Pharmaceuticals, 2023)
